Measured values published in US20240238300A1, “TREATMENT METHODS FOR SUBJECTS WITH CANCER HAVING AN ABERRATION IN EGFR AND/OR HER2” (TAIHO PHARMACEUTICAL CO., LTD., priority 2021, published 2024).
Read-outs that look alike come from different tables or passages of the source.

Tests used:
BT-474 cells = assay: growth inhibitory effect in human cancer cell lines (GI50); format: cell-based; details: breast cancer, HER2 gene amplification
Description: (§1) Among the 9 cell lines tested, HER2 gene amplification has previously been reported in BT-474 cells (breast cancer) and NCI-N87 cells (gastric cancer), while HER2 gene mutation (DelG776insVC) has been reported in NCI-H1781 cells (lung cancer).

NCI-H1781 cells = assay: as above; format: cell-based; details: lung cancer, HER2 DelG776insVC
Description: as §1

NCI-N87 cells = assay: as above; format: cell-based; details: gastric cancer, HER2 gene amplification
Description: as §1

[1] = system: NCI-H1975 EGFR D770_N771insSVD cells; assay: as above; format: cell-based; details: lung cancer, EGFR exon 20 insertion
[2] = system: NCI-N87 human gastric carcinoma xenografts; assay: antitumor effect in nude mice bearing NCI-N87 xenografts; format: in vivo; details: 12.5 mg/kg/day orally once daily 14 days, Day 15
Protocol: The antitumor effect of Compound (1) was evaluated in nude mice bearing HER2-overexpressing NCI-N87 human gastric carcinoma xenografts. Compound (1) dosing suspensions using 0.5% w/v hydroxypropyl methylcellulose (HPMC) as vehicle were prepared at 4 dose levels (3.1, 6.3, 12.5, and 25.0 mg/kg/day) and administered orally once daily for 14 days. In addition, the antitumor effect of poziotinib, which is a pan-ErbB inhibitor and currently under clinical development for the treatment of cancer with epidermal growth factor receptor containing HER2 exon 20 insertion mutations, was also evaluated using this model. Poziotinib was administered orally once daily for 14 days at 2 dose levels (0.5 or 1.0 mg/kg/day). The control group received 0.5% w/v HPMC once daily for 14 days.

[3] = pharmacokinetics after single oral administration; format: in vivo, male nude mice; details: plasma; for AUC(0-t): male, nude, mouse, read-out: AUC0-24
Protocol: Compound (1) was orally administered. The concentrations of Compound (1) were quantified using LC-MS/MS for the PK studies. ^13C-labeled Compound (1) was used as an internal standard.
Pharmacokinetics in nude mice after single oral administration. Plasma concentration profiles and PK parameters of Compound (1) were determined in male nude mice following a single oral administration at doses of 6.25, 12.5, and 25 mg/kg (FIGS. 4A and 4B, and Table 4). The Cmax, AUClast, and AUC0-24 values increased in a dose dependent manner.

[4] = brain binding, brain homogenate, equilibrium dialysis; format: in vitro ADME, nude mouse
Protocol: Brain binding of Compound (1) in nude mice. Brain binding of Compound (1) at 0.005, 0.01, 0.05, 0.1, and 0.5 μmol/L using nude mouse brain homogenate was evaluated by equilibrium dialysis method. The brain binding at […] was not calculated due to the limit of quantification by LC-MS/MS, but at 0.05, 0.1, and 0.5 μmol/L was 99.6±0.0%, 99.5±0.0%, and 99.5±0.0%, respectively.

human P-gp = molecular target: T1, human P-gp (Homo sapiens, UniProt P08183); assay: inhibitory effect on human P-gp, bidirectional transport of [^3H]digoxin; format: in vitro ADME
T1 construct: expressed in transfected cells; host or cells: LLC-PK1 (porcine kidney) cells expressing human P-gp; mock/LLC-PK1 as control
Description: Inhibitory effect of Compound (1) on human P-gp. […] The net flux ratios at the Compound (1) concentrations of 0.01, 0.1, 1, 5, 10, and 100 μmol/L were 5.6±1.0, 5.5±0.7, 6.5±0.5, 2.8±0.5, 1.3±0.2, and 1.0±0.1, respectively. The percent of controls at the Compound (1) concentrations at 0.01, 0.1, 1, 5, 10, and 100 μmol/L were 112%, 110%, 135%, 45%, 7%, and 1%, respectively.

[5] = system: MDA-MB-175VII cells (DOC4-NRG1 fusion); assay: growth inhibitory effect in NRG1 fusion-driven cancer cell line (GI50); format: cell-based; details: Homo sapiens, mean of 3-4 independent experiments
Protocol: GI50 values were also determined for currently approved EGFR/HER2 tyrosine kinase inhibitors: afatinib, osimertinib, tucatinib, lapatinib, and neratinib, and one investigational drug (poziotinib). Mean values were determined from 3-4 independent experiments.

[6] = system: intracranial NCI-N87-luc human gastric carcinoma xenografts; assay: intracranial antitumor effect with various dosing schedules, NCI-N87-luc xenografts; format: in vivo, nude mice; details: Day 22; for T/C ratio of the mean total flux: 21 days
Protocol: The intracranial antitumor effect of Compound (1) with various dosing schedules ((i) QD, (ii) intermittent, and (iii) 4 days-on/3 days-off) was evaluated using Compound (1) in nude mice intracranially implanted with NCI-N87-luc cells, which were engineered to stably express the luciferase gene using the HER2-overexpressing NCI-N87 human gastric carcinoma cell line.
Compound (1) dosing suspensions using 0.5% weight per volume (w/v) hydroxypropyl methylcellulose (HPMC) as vehicle were prepared with Compound (1) at 2 dose levels (25.0 or 50.0 mg/kg/day) and orally administered with various dosing schedules ((i) QD, (ii) intermittent, and (iii) 4 days-on/3 days-off) for 21 days. The (i) QD dosing schedule in this example was dosing every day on day 1 to day 21. The (ii) intermittent dosing schedule in this example used sequential 7-day periods that each comprise alternating 4 days-on and 3 days-off. That is, this schedule involved dosing on days 1, 3, 5, 7, 8, 10, 12, 14, 15, 17, 19, and 21. The (iii) 4 days-on/3 days-off dosing schedule was dosing on days 1, 2, 3, 4, 8, 9, 10, 11, 15, 16, 17, and 18. The control group received 0.5% w/v HPMC solution orally once daily for 21 days.

[7] = (ii) intermittent 50.0 mg/kg/day
[8] = (iii) 4 days-on/3 days-off 50.0 mg/kg/day

T1 sequence (P08183 whole entry): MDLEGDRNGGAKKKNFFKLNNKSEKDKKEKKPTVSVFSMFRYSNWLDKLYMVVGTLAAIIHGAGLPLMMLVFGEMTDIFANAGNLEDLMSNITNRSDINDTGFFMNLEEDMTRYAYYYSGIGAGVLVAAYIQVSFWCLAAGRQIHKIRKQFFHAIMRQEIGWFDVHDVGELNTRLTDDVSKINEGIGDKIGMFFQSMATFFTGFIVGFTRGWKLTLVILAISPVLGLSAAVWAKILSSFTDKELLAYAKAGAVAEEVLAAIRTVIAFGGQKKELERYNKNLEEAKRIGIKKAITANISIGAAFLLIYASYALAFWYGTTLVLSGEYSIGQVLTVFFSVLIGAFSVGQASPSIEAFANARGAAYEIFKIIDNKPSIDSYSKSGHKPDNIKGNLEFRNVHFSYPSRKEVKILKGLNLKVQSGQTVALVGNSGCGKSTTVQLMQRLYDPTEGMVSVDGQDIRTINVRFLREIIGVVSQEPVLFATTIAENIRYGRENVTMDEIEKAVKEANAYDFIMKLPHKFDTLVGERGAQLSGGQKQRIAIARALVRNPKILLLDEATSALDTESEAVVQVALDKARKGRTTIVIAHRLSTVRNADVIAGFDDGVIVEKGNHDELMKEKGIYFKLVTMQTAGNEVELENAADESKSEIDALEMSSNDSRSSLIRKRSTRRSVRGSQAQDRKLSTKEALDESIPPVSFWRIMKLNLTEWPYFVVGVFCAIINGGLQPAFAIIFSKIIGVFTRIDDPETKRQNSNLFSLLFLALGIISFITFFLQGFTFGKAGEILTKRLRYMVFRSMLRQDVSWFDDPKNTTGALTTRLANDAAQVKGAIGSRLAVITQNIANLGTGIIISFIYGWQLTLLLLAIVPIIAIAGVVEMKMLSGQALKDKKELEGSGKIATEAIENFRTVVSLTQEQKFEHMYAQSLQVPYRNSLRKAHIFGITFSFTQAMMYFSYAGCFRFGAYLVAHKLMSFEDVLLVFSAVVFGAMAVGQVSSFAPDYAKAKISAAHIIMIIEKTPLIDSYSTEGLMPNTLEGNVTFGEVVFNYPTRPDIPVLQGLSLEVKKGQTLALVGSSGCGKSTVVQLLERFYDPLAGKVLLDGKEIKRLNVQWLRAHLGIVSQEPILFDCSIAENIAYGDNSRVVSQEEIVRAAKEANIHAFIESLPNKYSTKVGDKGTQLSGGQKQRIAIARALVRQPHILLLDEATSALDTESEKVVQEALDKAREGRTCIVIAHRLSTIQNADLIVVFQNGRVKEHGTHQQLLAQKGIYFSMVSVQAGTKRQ

Structure (SMILES): C=CC(=O)N1C[C@H](n2c(C#CC3CC3)c(C(=O)N[C@H](C)c3ccccc3)c3c(N)ncnc32)C[C@@H]1C [Compound (1), 7-((3R,5S)-1-acryloyl-5-methylpyrrolidin-3-yl)-4-amino-6-(cyclopropylethynyl)-N—((R)-1-phenylethyl)-7H-pyrrolo[2,3-d]pyrimidine-5-carboxamide]
- GI50 (BT-474 cells): 2.05 ± 0.48 nM
- GI50 (NCI-H1781 cells): 5.85 ± 2.83 nM
- GI50 (NCI-N87 cells): 0.891 ± 0.312 nM
- GI50 [1]: 8.71 ± 4.56 nM
- T/C ratio of the mean tumor volumes [2]: 7.3%
- AUC(0-t) ([3]; single oral 6.25 mg/kg): 822 ± 208 ng·h/mL
- AUC(0-t) ([3]; single oral 25 mg/kg): 5230 ± 620 ng·h/mL
- AUClast ([3]; single oral 6.25 mg/kg): 795 ± 229 ng·h/mL
- Cmax ([3]; single oral 6.25 mg/kg): 601 ± 111 ng/mL
- Tmax ([3]; single oral 6.25 mg/kg): 19.8 ± 8.4 min
- AUC0-24 ([3]; single oral 12.5 mg/kg): 2010 ± 230 ng·h/mL
- AUClast ([3]; single oral 12.5 mg/kg): 2010 ± 230 ng·h/mL
- Cmax ([3]; single oral 12.5 mg/kg): 1590 ± 220 ng/mL
- Tmax ([3]; single oral 12.5 mg/kg): 15 ± 0 min
- AUClast ([3]; single oral 25 mg/kg): 5080 ± 820 ng·h/mL
- Cmax ([3]; single oral 25 mg/kg): 3580 ± 190 ng/mL
- Tmax ([3]; single oral 25 mg/kg): 15 ± 0 min
- brain binding ([4]; 0.05 μmol/L): 99.6±0.0%
- brain binding ([4]; 0.1 μmol/L): 99.5±0.0%
- brain binding ([4]; 0.5 μmol/L): 99.5±0.0%
- IC50 (human P-gp): 3480 nM
- activity at 3 h, 0.01 μmol/L (human P-gp; human): 112%
- activity at 3 h, 0.1 μmol/L (human P-gp; human): 110%
- activity at 3 h, 1 μmol/L (human P-gp; human): 135%
- activity at 3 h, 5 μmol/L (human P-gp; human): 45%
- activity at 3 h, 10 μmol/L (human P-gp; human): 7%
- activity at 3 h, 100 μmol/L (human P-gp; human): 1%
- GI50 [5]: 1.2 ± 0.3 nM
- T/C ratio of the mean total flux [6, 7]: 3.8%
- mean body weight change [6, 7]: −1.0%
- T/C ratio of the mean total flux [6, 8]: 8.9%
- mean body weight change [6, 8]: 0.3%
